Molecules are shown by their SMILES.

The first data set in a line: n-octanol/water partition coefficient LogP (JIS Z 7260-117). Particulars: n-octanol/water.
By chromatographic logP is commonly meant lipophilicity estimated from chromatographic retention. The low end stands for a more hydrophilic compound, the high end for a more lipophilic compound. Turning to `C=C(C)C(=O)OC` [methyl methacrylate], the chromatographic logP came to 1.38.

In the case of `C=CC(=O)OC1CCCCC1` [cyclohexyl acrylate], the chromatographic logP came out at 2.76.

Regarding `C=C(C)C(=O)OCCCC` [n-butyl methacrylate], the chromatographic logP worked out at 2.74.

Turning to `C=CC(=O)NC` [N-methylacrylamide], the chromatographic logP is -0.59.

For the compound `C=CC(=O)OCC(CC)CCCC` (stereo not drawn) [2-ethylhexyl acrylate], the chromatographic logP was found to be 4.2.

For the compound `C=CC(=O)OC(C)(C)C` [tert-butyl acrylate], the chromatographic logP is 2.06.

With `C=C(C)C(=O)OCCO` [2-hydroxyethyl methacrylate], the chromatographic logP was determined as 0.43.

`C=CC(=O)OCCCC` [n-butyl acrylate] gave a chromatographic logP of 2.32.

`C=C(C)C(=O)OC1CCCCC1` [cyclohexyl methacrylate]: the chromatographic logP was 3.18.

`C=CC(=O)OCCO` [2-hydroxyethyl acrylate] showed a chromatographic logP of 0.01.

`C=C(C)C(=O)NCCO` [N-hydroxyethylmethacrylamide] had a chromatographic logP of -0.95.

On to `C=C(C)C(=O)NCO` [N-hydroxymethylmethacrylamide], for which the chromatographic logP was -0.96.

`C=CC(=O)OCC(C)C` [isobutyl acrylate] had a chromatographic logP of 2.16.

For `C=CC(=O)OCCCCO` [4-hydroxybutyl acrylate], the chromatographic logP stood at 0.59.

With `C=C(C)C(=O)OCCCCCCCCCCCCCCCCCC` [stearyl methacrylate], the chromatographic logP turned out to be 9.87.

Take `C=CC(=O)OC` [methyl acrylate]: the chromatographic logP turned out to be 0.8.

Turning to `C=CC(N)=O` [acrylamide], the chromatographic logP is -0.56.

The data set is the same for the next values; noted with them: n-octanol/water partition coefficient.
For orientation: LogP means a log measure of how a compound divides between an organic and an aqueous phase. Low values mean a more hydrophilic compound, high ones a more lipophilic compound. Take `C=CC(=O)OCCCC` [n-butyl acrylate]: the LogP entry is “Acrylic acid-n butyl (E-1) LogP = 2.32”.

Compound `C=CC(=O)OC1CC2CCC1(C)C2(C)C` (stereo not drawn) [isoboronyl acrylate] displayed a LogP of 4.03.

`C=C(C)C(=O)OC1CC2CCC1(C)C2(C)C` (stereo not drawn) [isoboronyl methacrylate] registered a LogP of 4.45.

The same data set, now with this note: n-octanol/water, LogP, n-octanol/water partition coefficient.
As to `C/C=C/C(=O)O` [crotonic acid], the chromatographic logP was found to be 0.66.

For the compound `C=CC(=O)OCC(C)O` (stereo not drawn) [2-hydroxypropyl acrylate], the chromatographic logP came out at 0.36.

`C=CC(=O)OCCC(=O)O` [β-carboxyethyl acrylate]: the chromatographic logP was determined as 0.31.

Take `C=C(C)C(=O)NCC` [N-ethylmethacrylamide]: the chromatographic logP was 0.34.

`C=CC(=O)NCCC` [N-propylacrylamide]: the chromatographic logP came out at 0.43.

Consider `C=C(C)C(=O)OCCC` [n-propyl methacrylate], for which the chromatographic logP was 2.23.

`C=CC(=O)NCC(C)O` (stereo not drawn) [N-(2-hydroxypropyl) acrylamide] had a chromatographic logP of -1.37.

In the case of `C=C(CC(=O)O)C(=O)O` [itaconic acid], the chromatographic logP is -0.08.

Compound `O=C(O)/C=C\C(=O)O` [maleic acid] had a chromatographic logP of -0.45.

In turn, `C=CC(=O)NCCCN(C)C` [N-(dimethylaminopropyl) acrylamide] registered a chromatographic logP of -0.24.

In the case of `C=C(C)C(=O)OC(C)C` [isopropyl methacrylate], the chromatographic logP was determined as 2.07.

For the compound `C=C(C)C(=O)NC` [N-methylmethacrylamide], the chromatographic logP is -0.17.

The compound `C=CC(=O)OCCCCCCCCCCCCCCCCCC` [stearyl acrylate] had a chromatographic logP of 9.45.

In turn, `C=C(C)C(N)=O` [methacrylamide] registered a chromatographic logP of -0.14.

As to `C=C(C)C(=O)OC(C)(C)C` [tert-butyl methacrylate], the chromatographic logP was 2.48.

Turning to `C=C(C)C(=O)OCC(C)C` [isobutyl methacrylate], the chromatographic logP turned out to be 2.58. This chromatographic logP and that of the compound before are within 0.2 log units of each other.

Turning to `C=CC(=O)NCN(C)C` [N-(dimethylaminomethyl) acrylamide], the chromatographic logP was -0.47.

With `C=C(C)C(=O)NC(C)C` [N-isopropylmethacrylamide], the chromatographic logP came out at 0.7.

As to `C=CC(=O)OCC` [ethyl acrylate], the chromatographic logP was determined as 1.32.

Compound `C=CC(=O)NCCN(C)C` [N-(dimethylaminoethyl) acrylamide] came in with a chromatographic logP of -0.28.

`O=C(O)/C=C/C(=O)O` [fumaric acid] displayed a chromatographic logP of -0.45.

For the compound `C=C(C)C(=O)OCC(C)O` (stereo not drawn) [2-hydroxypropyl methacrylate], the chromatographic logP came to 0.78.

Compound `C=C(C)C(=O)NCC(C)O` (stereo not drawn) [N-(2-Hydroxypropyl) methacrylamide] registered a chromatographic logP of 0.95.

The nature of a further data set: physchem.
Conditions: not given
Compound `C=CC(=O)NC(C)(C)CC(C)=O` [diacetone acrylamide] had a chromatographic logP of 0.04.

Staying with this data set, now noted: LogP.
The compound `C=CC(=O)NCO` [N-hydroxymethylacrylamide] yielded a chromatographic logP of -1.38.

The compound `C=CC(=O)NCC` [N-ethylacrylamide] gave a chromatographic logP of -0.08.

As for `C=CC(=O)N(C)C` [N, N-dimethylacrylamide], the chromatographic logP is -0.14.

For `C=C(C)C(=O)OCC(CC)CCCC` (stereo not drawn) [2-ethylhexyl methacrylate], the chromatographic logP stood at 4.62.
